Reference: PMC8286840, “Identifying SARS-CoV-2 antiviral compounds by screening for small molecule inhibitors of Nsp3 papain-like protease” (Biochemical Journal, 2021)
Structures can show the parent of a compound that is named as a salt. Where two headings read alike, the source gives them in different places.

Key:
[1] = target: T1, SARS-CoV-2 PLpro (nsp3 1564–1878) (Severe acute respiratory syndrome coronavirus 2, UniProt P0DTD1); assay: biochemical; design: FRET-quenched peptide (Pro3) cleavage by PLpro, 10 min pre-incubation, slope over 20 min, normalised to no-compound control; details: low concentration screen, read-out: % of control remaining
[2] = target: T1, SARS-CoV-2 PLpro (nsp3 1564–1878); assay: biochemical; design: FRET-quenched peptide (Pro3) cleavage by PLpro, 10 min pre-incubation, slope over 20 min, normalised to no-compound control; details: high concentration screen, read-out: % of control remaining

CN(C)c1ccc(O)c2c1C[C@H]1C[C@H]3[C@H](N(C)C)C(O)=C(C(N)=O)C(=O)[C@@]3(O)C(O)=C1C2=O
remaining activity at 1.25 µM ([1]; Well no.=3663): 102%

CC(N)(C(=O)O)c1ccc(C(=O)O)cc1 (racemic)
remaining activity at 3.75 µM ([2]; Well no.=880): 111%

CC(C)NCC(O)c1ccc(O)c(O)c1 (racemic)
remaining activity at 1.25 µM ([1]; Well no.=1107): 97.8%

Oc1cc2c(cc1O)C(c1ccccc1)CNCC2 (racemic)
remaining activity at 3.75 µM ([2]; Well no.=542): 98.7%

CN(C)CCC(c1ccc(Cl)cc1)c1ccccn1 (racemic)
remaining activity at 1.25 µM ([1]; Well no.=124): 92.9%

CN1C[C@@H]2c3ccccc3Oc3ccc(Cl)cc3[C@H]2C1 (racemic) [Asenapine]
remaining activity at 3.75 µM ([2]; Well no.=5151): 105%

CCC1(c2ccc(N)cc2)CCC(=O)NC1=O (racemic) [DL-Aminoglutethimide]
remaining activity at 1.25 µM ([1]; Well no.=2117): 99.9%

O=C(CCN1CCN(C(=O)OCc2cc(Cl)cc(Cl)c2)CC1)c1ccc2[nH]c(=O)oc2c1 [3,5-dichlorobenzyl 4-[3-oxo-3-(2-oxo-2,3-dihydro-1,3-benzoxazol-6-yl)propyl]-1-piperazinecarboxylate]
remaining activity at 3.75 µM ([2]; Well no.=5605): 105%

CC(=O)[C@H]1CC[C@H]2[C@@H]3CC[C@H]4C[C@H](O)CC[C@]4(C)[C@H]3CC[C@]12C [5alpha-Pregnan-3alpha-ol-20-one]
remaining activity at 1.25 µM ([1]; Well no.=1353): 104%

Cc1noc(-c2ccc(-c3ccc(CC(=O)O)cc3)cc2)c1NC(=O)O[C@H](C)c1ccccc1 [AM095 (free acid)]
remaining activity at 3.75 µM ([2]; Well no.=7853): 101%

O=c1cc(-c2cccc3c2Sc2ccccc2S3)oc(N2CCOCC2)c1 [ATM Kinase Inhibitor]
remaining activity at 3.75 µM ([2]; Well no.=2310): 104%

CCCC(=O)Nc1ccc(OCC(O)CNC(C)C)c(C(C)=O)c1 (stereo not shown) [Acebutolol HCl]
remaining activity at 3.75 µM ([2]; Well no.=5074): 103%

C=CCc1ccccc1OCC(O)CNC(C)C (stereo not shown) [Alprenolol.HCl]
remaining activity at 1.25 µM ([1]; Well no.=1686): 103%

CC(NC(C)(C)C)C(=O)c1cccc(Cl)c1 (stereo not shown) [Amfebutamone]
remaining activity at 1.25 µM ([1]; Well no.=1694): 98.7%

CN1[C@@H]2CC[C@H]1C[C@@H](OC(=O)C(CO)c1ccccc1)C2 (stereo partly shown) [Atropine]
remaining activity at 1.25 µM ([1]; Well no.=1552): 100%

O=C1CC2(CCCC2)CC(=O)N1CCCCN1CCN(c2ncccn2)CC1 [Buspirone]
remaining activity at 3.75 µM ([2]; Well no.=2179): 105%

S=C(S)O[C@@H]1C[C@@H]2C[C@@H]1[C@H]1CCC[C@@H]21 [D609]
remaining activity at 3.75 µM ([2]; Well no.=4133): 100%

CC/C(=C(/CC)c1ccc(O)cc1)c1ccc(O)cc1 [Diethylstilbestrol]
remaining activity at 3.75 µM ([2]; Well no.=1982): 98.4%

Cc1cccc2c3c(ccc12)C1=C(C(=O)C3=O)C(C)CO1 (stereo not shown) [Dihydrotanshinone]
remaining activity at 1.25 µM ([1]; Well no.=3569): 102%

COc1ccc([C@@H]2Sc3ccccc3N(CCN(C)C)C(=O)[C@@H]2OC(C)=O)cc1 [Diltiazem hydrochloride]
remaining activity at 3.75 µM ([2]; Well no.=399): 103%

O=c1[nH]c2ccccc2n1CCN1CCN(c2cccc(C(F)(F)F)c2)CC1 [Flibanserin]
remaining activity at 1.25 µM ([1]; Well no.=6855): 102%

Cc1ccc(OC[C@H](O)[C@@H](C)NC(C)C)c2c1CCC2 [ICI 118,551 (hydrochloride)]
remaining activity at 1.25 µM ([1]; Well no.=7035): 106%

COc1ccc(Cl)cc1NC(=O)Nc1cc(C)nc2ccccc12 [IGF-1R Inhibitor II]
remaining activity at 3.75 µM ([2]; Well no.=2451): 104%

O=C(c1ccc(Nc2nccc(-c3cc4ccccc4s3)n2)cc1)N1CCC(N2CCCC2)CC1 [IKK Inhibitor VII]
remaining activity at 1.25 µM ([1]; Well no.=2439): 103%

CN(C)CCCN1c2ccccc2CCc2ccccc21 [Imipramine.HCl]
remaining activity at 3.75 µM ([2]; Well no.=1688): 102%

CC(C)[N+]1(C)[C@@H]2CC[C@H]1C[C@@H](OC(=O)C(CO)c1ccccc1)C2 (stereo partly shown) [Ipratropium (bromide)]
remaining activity at 1.25 µM ([1]; Well no.=6175): 100%

COc1cc2ncnc(Nc3ccc(F)c(Cl)c3)c2cc1OCCCN1CCOCC1 [Iressa - N-(3-chloro-4-fluoro-phenyl)-7-methoxy-6-(3-morpholin-4-ylpropoxy)quinazolin-4-amine]
remaining activity at 1.25 µM ([1]; Well no.=2670): 97.6%

CC(C(=O)O)c1cccc(C(=O)c2ccccc2)c1 (stereo not shown) [Ketoprofen]
remaining activity at 3.75 µM ([2]; Well no.=973): 101%
remaining activity at 3.75 µM ([2]; Well no.=1576): 98.4%

C[N+](C)(C)[C@@H](Cc1c[nH]c(=S)[nH]1)C(=O)[O-] [L-Ergothioneine]
remaining activity at 3.75 µM ([2]; Well no.=3891): 100%

CC1(C)C(=O)N(CCN2CCC(C(=O)c3ccc(F)cc3)CC2)c2ccccc21 [LY-310,762 hydrochloride]
remaining activity at 1.25 µM ([1]; Well no.=833): 99.6%

CN1[C@@H](CC(=O)c2ccccc2)CCC[C@H]1C[C@H](O)c1ccccc1 [Lobeline]
remaining activity at 3.75 µM ([2]; Well no.=1663): 103%

CC[C@H](C)C(=O)O[C@H]1C[C@@H](C)C=C2C=C[C@H](C)[C@H](CC[C@@H]3C[C@@H](O)CC(=O)O3)[C@H]21 [Lovastatin]
remaining activity at 1.25 µM ([1]; Well no.=1830): 99.3%

COc1cc(Nc2ncc3c(n2)-c2ccc(Cl)cc2C(c2c(F)cccc2OC)=NC3)ccc1C(=O)O [MLN8237 (Alisertib)]
remaining activity at 3.75 µM ([2]; Well no.=4675): 104%

CN1C[C@@H](NS(=O)(=O)N(C)C)C[C@@H]2c3cccc4c3c(cn4C)C[C@H]21 [Mesulergine]
remaining activity at 3.75 µM ([2]; Well no.=1692): 106%

CC(C)(O)c1ccccc1CC[C@@H](SCC1(CC(=O)O)CC1)c1cccc(/C=C/c2ccc3ccc(Cl)cc3n2)c1 [Montelukast]
remaining activity at 3.75 µM ([2]; Well no.=1615): 101%

CN1CCN(C2Cc3ccccc3Sc3ccc(Cl)cc32)CC1 (stereo not shown) [Octoclothepin maleate salt]
remaining activity at 3.75 µM ([2]; Well no.=5506): 108%

CN(C)CC/C=C1/c2ccccc2COc2ccc(CC(=O)O)cc21 [Olopatadine]
remaining activity at 3.75 µM ([2]; Well no.=1786): 103%

Cc1nccn1CC1CCc2c(c3ccccc3n2C)C1=O (stereo not shown) [Ondansetron (hydrochloride dihydrate)]
remaining activity at 3.75 µM ([2]; Well no.=7521): 105%

Cc1cc(C(C)(C)C)c(O)c(C)c1CC1=NCCN1 [Oxymetazoline.HCl]
remaining activity at 3.75 µM ([2]; Well no.=1683): 105%

CCCCCCCCCCCCCCCC(=O)NCCO [Palmitoylethanolamide]
remaining activity at 3.75 µM ([2]; Well no.=900): 106%

O=C(Nc1cccc2c(=O)cc(-c3nnn[nH]3)oc12)c1ccc(OCCCCc2ccccc2)cc1 [Pranlukast (hemihydrate)]
remaining activity at 3.75 µM ([2]; Well no.=6603): 102%

COC(=O)[C@H]1[C@H]2C[C@H]3c4[nH]c5ccccc5c4CCN3C[C@H]2CC[C@@H]1O [Rauwolscine (hydrochloride)]
remaining activity at 3.75 µM ([2]; Well no.=8155): 99.9%

C1COC(NC(C2CC2)C2CC2)=N1 [Rilmenidine phosphate]
remaining activity at 3.75 µM ([2]; Well no.=1695): 106%

CNCC[C@H](Oc1ccc(C(F)(F)F)cc1)c1ccccc1 [S-(+)-Fluoxetine hydrochloride]
remaining activity at 3.75 µM ([2]; Well no.=753): 99.7%

Oc1cc2c(cc1O)C(c1ccccc1)CNCC2 (stereo not shown) [SKF 38393 (hydrochloride)]
remaining activity at 3.75 µM ([2]; Well no.=7231): 97.8%

O=C(CCCN1CCC2(CC1)C(=O)NCN2c1ccccc1)c1ccc(F)cc1 [Spiperone.HCl]
remaining activity at 3.75 µM ([2]; Well no.=1648): 106%

Cc1ccc(C(=O)Nc2ccc(S(=O)(=O)O)c3cc(S(=O)(=O)O)cc(S(=O)(=O)O)c23)cc1NC(=O)c1cccc(NC(=O)Nc2cccc(C(=O)Nc3cc(C(=O)Nc4ccc(S(=O)(=O)O)c5cc(S(=O)(=O)O)cc(S(=O)(=O)O)c45)ccc3C)c2)c1 [Suramin hexasodium]
remaining activity at 3.75 µM ([2]; Well no.=1469): 102%

Nc1c2c(nc3ccccc13)CCCC2 [Tacrine]
remaining activity at 3.75 µM ([2]; Well no.=1675): 105%

CN(C)CCCN1c2ccccc2Sc2ccc(C(F)(F)F)cc21 [Triflupromazine hydrochloride]
remaining activity at 3.75 µM ([2]; Well no.=1285): 105%

CCC(COC(=O)c1cc(OC)c(OC)c(OC)c1)(c1ccccc1)N(C)C (stereo not shown) [Trimebutine (maleate)]
remaining activity at 3.75 µM ([2]; Well no.=6655): 107%

Cc1cccc(C)c1NC1=NCCCS1 [Xylazine hydrochloride]
remaining activity at 3.75 µM ([2]; Well no.=1388): 98.8%
